Assay results as given in BindingDB's records for doi:10.1021/jm049237m (Wyeth Research, 2004).

Target: Proto-oncogene tyrosine-protein kinase Src (Homo sapiens, UniProt P12931)
Assay: Homogeneous Time-resolved Fluorescence (HTRF) Assay
Details: pH 7.5; 37 °C
Method: Kinase assays were performed using the europium/APC detection format (LANCE, Perkin Elmer). HTRF is based on the proximity of europium cryptate (donor fluorophore)-labeled antiphosphotyrosine and streptavidin labeled with APC(allophycocyanin), which have been brought together by a binding reaction. When the two entities come into close proximity and upon excitation, energy transfer occurs and APC re-emits at 665 nm.

Chain of Proto-oncogene tyrosine-protein kinase Src (P12931 2-536 limits assumed): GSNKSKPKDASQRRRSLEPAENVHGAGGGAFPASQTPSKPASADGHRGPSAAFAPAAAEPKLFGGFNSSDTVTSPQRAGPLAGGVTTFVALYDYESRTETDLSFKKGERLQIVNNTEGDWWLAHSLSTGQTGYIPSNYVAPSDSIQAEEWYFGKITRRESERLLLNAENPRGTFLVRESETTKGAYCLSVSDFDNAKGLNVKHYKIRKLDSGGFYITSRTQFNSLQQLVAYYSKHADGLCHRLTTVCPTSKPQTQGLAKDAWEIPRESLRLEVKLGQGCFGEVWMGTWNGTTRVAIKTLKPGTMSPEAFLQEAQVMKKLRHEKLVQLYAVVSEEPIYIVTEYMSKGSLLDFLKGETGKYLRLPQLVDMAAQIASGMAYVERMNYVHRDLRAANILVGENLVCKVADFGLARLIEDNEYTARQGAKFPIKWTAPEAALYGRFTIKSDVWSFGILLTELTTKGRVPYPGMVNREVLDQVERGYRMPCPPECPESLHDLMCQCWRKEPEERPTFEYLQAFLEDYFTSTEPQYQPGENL

IC50: > 10 µM
SMILES: COc1cc(Nc2c(C#N)cnc3cc(-c4ccccc4CN4CCN(C)CC4)sc23)c(Cl)cc1Cl [7-[(2,4-dichloro-5-methoxyphenyl)amino]-2-{2-[(4-methylpiperazin-1-yl)methyl]phenyl}thieno[3,2-b]pyridine-6-carbonitrile]
